From patent US10975068B2, “6-aminopyridin-3-yl thiazoles as modulators of RORγT” (Janssen Pharmaceutica NV, priority 2016, dated 2021)
Like-named read-outs stand apart in the source and are kept apart here.

Experiments:
full-length human RORγt = full-length human RORγt (Homo sapiens (Human), UniProt P51449); test: RORγt (full-length human) reporter assay, Conditions B or C; assay type: cell-based; conditions: for IC50: read-out: RORγt (FL) Reporter Assay B or C, IC50; for inhibition at 3 µM: at 3 μM compound concentration
Method in brief: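 Readout is dual luciferase: firefly (GAL4-driven) normalized to DMSO-only and saturating-reference controls, then to CMV-Renilla. Full-length human RORγt fused to GAL4-DBD was transiently expressed in HEK293T; compound exposure ran overnight (16-20 h) starting 4-6 h after transfection, final FBS 1.3%, DMSO 0.1%.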

[1] = biological target: human RORγt ligand binding domain (RORγt LBD) (Homo sapiens (Human), UniProt P51449); test: RORγt ThermoFluor® assay (thermal shift binding); conditions: read-out: ThermoFluor® Assay, Kd
Method in brief: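 Binding was inferred from thermal stabilisation (ΔTm) of the E. coli-expressed RORγt LBD (0.065 mg/mL), monitored by 1,8-ANS (60 μM) emission at 500 nm during a 1 °C/min ramp. Buffer was Hepes 100 mM pH 7.0 with NaCl, GSH and Tween-20.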

[2] = read-out: RORγt (FL) Reporter Assay B or C, % inhibition

Sequence of human RORγt ligand binding domain (RORγt LBD) (P51449 other isoform, or with tags, fused parts or gaps): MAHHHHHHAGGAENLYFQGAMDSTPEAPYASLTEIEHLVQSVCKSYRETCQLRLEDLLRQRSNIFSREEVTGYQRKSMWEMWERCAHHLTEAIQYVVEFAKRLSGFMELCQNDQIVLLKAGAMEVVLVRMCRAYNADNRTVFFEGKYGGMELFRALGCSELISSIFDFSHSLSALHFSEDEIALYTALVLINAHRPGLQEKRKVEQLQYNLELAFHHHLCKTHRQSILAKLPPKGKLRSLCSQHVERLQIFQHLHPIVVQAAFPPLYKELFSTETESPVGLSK
Sequence of full-length human RORγt (P51449 other isoform, or with tags, fused parts or gaps): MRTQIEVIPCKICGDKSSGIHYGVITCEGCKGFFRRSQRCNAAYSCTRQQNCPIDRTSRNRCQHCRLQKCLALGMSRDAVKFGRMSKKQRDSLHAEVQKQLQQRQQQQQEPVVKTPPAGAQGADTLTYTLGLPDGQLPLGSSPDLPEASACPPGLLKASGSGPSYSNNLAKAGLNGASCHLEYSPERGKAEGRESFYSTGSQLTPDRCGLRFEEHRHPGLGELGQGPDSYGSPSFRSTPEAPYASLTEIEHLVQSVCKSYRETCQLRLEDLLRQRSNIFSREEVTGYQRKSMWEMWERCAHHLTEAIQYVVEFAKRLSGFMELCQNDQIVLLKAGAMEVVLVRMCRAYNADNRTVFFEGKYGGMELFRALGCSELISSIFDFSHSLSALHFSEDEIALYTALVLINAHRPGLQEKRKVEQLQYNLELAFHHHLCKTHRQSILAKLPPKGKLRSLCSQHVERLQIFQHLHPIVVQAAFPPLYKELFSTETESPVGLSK

Row | Structure (SMILES) | RORγt (FL) Reporter Assay B or C, % inhibition (value marked *) (full-length human RORγt; Conditions B or C, marked *: footnote not given) | IC50 (full-length human RORγt; Conditions B or C) [µM] | Kd [1] [µM] | inhibition at 3 µM (full-length human RORγt; [2]) [%] | IC50 (full-length human RORγt) [µM] | inhibition at 1 µM (full-length human RORγt; at 1 μM compound concentration, read-out: RORγt (FL) Reporter Assay B or C, % inhibition) [%]
1 | C[C@H](NC(=O)c1nc(C(=O)N2CCC[C@@H]2C)c(-c2cnc(NC(C)(C)C)cc2C(F)(F)F)s1)[C@@H](C)O (relative stereo) [Example 238, 5-(6-(tert-Butylamino)-4-(trifluoromethyl)pyridin-3-yl)-N-((2S*,3R*)-3-hydroxybutan-2-yl)-4-((S)-2-methylpyrrolidine-1-carbonyl)thiazole-2-carboxamide] | 92* % | 0.029 | 0.0055 | – | – | –
2 | C[C@H](Nc1cc(C(F)F)c(-c2sc(C(=O)N[C@@H]3CC[C@H]3O)nc2C(=O)N2C3CCC2CC3)cn1)C(F)(F)F (relative stereo) [Example 291, 4-((1s,4s)-7-Azabicyclo[2.2.1]heptane-7-carbonyl)-5-(4-(difluoromethyl)-6-(((S)-1,1,1-trifluoropropan-2-yl)amino)pyridin-3-yl)-N-((1R*,2R*)-2-hydroxycyclobutyl)thiazole-2-carboxamide] | – | – | 0.0069 | 113 | 0.12 | –
3 | C[C@H](Nc1cc(C(F)F)c(-c2sc(C(=O)N[C@H]3CC[C@@H]3O)nc2C(=O)N2C3CCC2CC3)cn1)C(F)(F)F (relative stereo) [Example 292, 4-((1s,4s)-7-Azabicyclo[2.2.1]heptane-7-carbonyl)-5-(4-(difluoromethyl)-6-(((S)-1,1,1-trifluoropropan-2-yl)amino)pyridin-3-yl)-N-((1S*,2S*)-2-hydroxycyclobutyl)thiazole-2-carboxamide] | – | – | 0.0061 | 106 | 0.04 | –
4 | C[C@H]1CCCN1C(=O)c1nc(C(=O)NC[C@H](O)C(F)(F)F)sc1-c1cnc(NC(C)(C)C)cc1C(F)(F)F (relative stereo) [Example 353, 5-(6-(tert-Butylamino)-4-(trifluoromethyl)pyridin-3-yl)-4-((S)-2-methylpyrrolidine-1-carbonyl)-N—((S*)-3,3,3-trifluoro-2-hydroxypropyl)thiazole-2-carboxamide] | – | – | 0.0016 | 95 | 0.02 | –
5 | C[C@H]1CCCN1C(=O)c1nc(C(=O)NC[C@@H](O)C(F)(F)F)sc1-c1cnc(NC(C)(C)C)cc1C(F)(F)F (relative stereo) [Example 354, 5-(6-(tert-Butylamino)-4-(trifluoromethyl)pyridin-3-yl)-4-((S)-2-methylpyrrolidine-1-carbonyl)-N—((R*)-3,3,3-trifluoro-2-hydroxypropyl)thiazole-2-carboxamide] | – | – | 0.00097 | 93 | 0.015 | –
6 | C[C@H]1CCCN1C(=O)c1nc(C(=O)N2CC[C@](C)(O)C2)sc1-c1cnc(NC(C)(C)C)cc1C(F)(F)F (relative stereo) [Example 365, (5-(6-(tert-Butylamino)-4-(trifluoromethyl)pyridin-3-yl)-2-((S*)-3-hydroxy-3-methylpyrrolidine-1-carbonyl)thiazol-4-yl)((S)-2-methylpyrrolidin-1-yl)methanone] | – | – | 0.0081 | – | 0.052 | 92
7 | C[C@H]1CCCN1C(=O)c1nc(C(=O)N2CC[C@@](C)(O)C2)sc1-c1cnc(NC(C)(C)C)cc1C(F)(F)F (relative stereo) [Example 366, (5-(6-(tert-Butylamino)-4-(trifluoromethyl)pyridin-3-yl)-2-((R*)-3-hydroxy-3-methylpyrrolidine-1-carbonyl)thiazol-4-yl)-((S)-2-methylpyrrolidin-1-yl)methanone] | – | – | 0.01 | 97 | 0.063 | –
8 | C[C@H]1CCCN1C(=O)c1nc(C(=O)N[C@@H]2CC[C@H]2O)sc1-c1cnc(NC(C)(C)C)cc1C(F)(F)F (relative stereo) [Example 370, 5-(6-(tert-Butylamino)-4-(trifluoromethyl)pyridin-3-yl)-N-((1R*,2R*)-2-hydroxycyclobutyl)-4-((S)-2-methylpyrrolidine-1-carbonyl)thiazole-2-carboxamide] | – | – | 0.00069 | 96 | 0.01 | –
9 | C[C@H]1CCCN1C(=O)c1nc(C(=O)N[C@H]2CC[C@@H]2O)sc1-c1cnc(NC(C)(C)C)cc1C(F)(F)F (relative stereo) [Example 371, 5-(6-(tert-Butylamino)-4-(trifluoromethyl)pyridin-3-yl)-N-((1S*,2S*)-2-hydroxycyclobutyl)-4-((S)-2-methylpyrrolidine-1-carbonyl)thiazole-2-carboxamide] | – | – | 0.00088 | 108 | 0.019 | –
10 | CC[C@H](Nc1cc(C(F)F)c(-c2sc(C(=O)N[C@@H]3CC[C@H]3O)nc2C(=O)N2CCC[C@@H]2C)cn1)C(F)(F)F (relative stereo) [Example 376, 5-(4-(Difluoromethyl)-6-(((S)-1,1,1-trifluorobutan-2-yl)amino)pyridin-3-yl)-N-((1R*,2R*)-2-hydroxycyclobutyl)-4-((S)-2-methylpyrrolidine-1-carbonyl)thiazole-2-carboxamide] | – | – | 0.0038 | 101 | 0.06 | –
11 | CC[C@H](Nc1cc(C(F)F)c(-c2sc(C(=O)N[C@H]3CC[C@@H]3O)nc2C(=O)N2CCC[C@@H]2C)cn1)C(F)(F)F (relative stereo) [Example 377, 5-(4-(Difluoromethyl)-6-(((S)-1,1,1-trifluorobutan-2-yl)amino)pyridin-3-yl)-N-((1S*,2S*)-2-hydroxycyclobutyl)-4-((S)-2-methylpyrrolidine-1-carbonyl)thiazole-2-carboxamide] | – | – | 0.0034 | 91 | 0.032 | –
12 | CC[C@H](Nc1cc(C(F)F)c(-c2sc(C(=O)N[C@H]3CC[C@H]3O)nc2C(=O)N2CCC[C@@H]2C)cn1)C(F)(F)F (relative stereo) [Example 380, 5-(4-(Difluoromethyl)-6-(((S)-1,1,1-trifluorobutan-2-yl)amino)pyridin-3-yl)-N-((1S*,2R*)-2-hydroxycyclobutyl)-4-((S)-2-methylpyrrolidine-1-carbonyl)thiazole-2-carboxamide] | – | – | 0.0016 | 108 | 0.018 | –
13 | CC[C@H](Nc1cc(C(F)F)c(-c2sc(C(=O)N[C@@H]3CC[C@@H]3O)nc2C(=O)N2CCC[C@@H]2C)cn1)C(F)(F)F (relative stereo) [Example 381, 5-(4-(Difluoromethyl)-6-(((S)-1,1,1-trifluorobutan-2-yl)amino)pyridin-3-yl)-N-((1R*,2S*)-2-hydroxycyclobutyl)-4-((S)-2-methylpyrrolidine-1-carbonyl)thiazole-2-carboxamide] | – | – | 0.0067 | 107 | 0.012 | –

Other lines, results leading:

Row | RORγt (FL) Reporter Assay B or C, % inhibition (value marked *) (full-length human RORγt; Conditions B or C, marked *: footnote not given) | IC50 (full-length human RORγt; Conditions B or C) [µM] | Kd [1] [µM] | inhibition at 3 µM (full-length human RORγt; [2]) [%] | IC50 (full-length human RORγt) [µM] | inhibition at 1 µM (full-length human RORγt; at 1 μM compound concentration, read-out: RORγt (FL) Reporter Assay B or C, % inhibition) [%] | Structure (SMILES)
14 | – | – | 0.0099 | 102 | 0.13 | – | C[C@H](Nc1cc(C(F)F)c(-c2sc(C(=O)N[C@@H]3CC[C@H]3O)nc2C(=O)N2CCC[C@@H]2C)cn1)C(F)(F)F (relative stereo) [Example 387, 5-(4-(Difluoromethyl)-6-(((S)-1,1,1-trifluoropropan-2-yl)amino)pyridin-3-yl)-N-(1R*,2R*)-2-hydroxycyclobutyl)-4-((S)-2-methylpyrrolidine-1-carbonyl)thiazole-2-carboxamide]
15 | – | – | 0.0086 | 103 | 0.085 | – | C[C@H](Nc1cc(C(F)F)c(-c2sc(C(=O)N[C@H]3CC[C@@H]3O)nc2C(=O)N2CCC[C@@H]2C)cn1)C(F)(F)F (relative stereo) [Example 388, 5-(4-(Difluoromethyl)-6-(((S)-1,1,1-trifluoropropan-2-yl)amino)pyridin-3-yl)-N-((1S*,2S*)-2-hydroxycyclobutyl)-4-((S)-2-methylpyrrolidine-1-carbonyl)thiazole-2-carboxamide]
16 | – | – | 0.012 | 99 | 0.028 | – | C[C@H](Nc1cc(C(F)F)c(-c2sc(C(=O)N[C@H]3CC[C@H]3O)nc2C(=O)N2CCC[C@@H]2C)cn1)C(F)(F)F (relative stereo) [Example 390, 5-(4-(Difluoromethyl)-6-(((S)-1,1,1-trifluoropropan-2-yl)amino)pyridin-3-yl)-N-((1S*,2R*)-2-hydroxycyclobutyl)-4-((S)-2-methylpyrrolidine-1-carbonyl)thiazole-2-carboxamide]
17 | – | – | 0.0042 | 106 | 0.035 | – | C[C@H](Nc1cc(C(F)F)c(-c2sc(C(=O)N[C@@H]3CC[C@@H]3O)nc2C(=O)N2CCC[C@@H]2C)cn1)C(F)(F)F (relative stereo) [Example 391, 5-(4-(Difluoromethyl)-6-(((S)-1,1,1-trifluoropropan-2-yl)amino)pyridin-3-yl)-N-((1R*,2S*)-2-hydroxycyclobutyl)-4-((S)-2-methylpyrrolidine-1-carbonyl)thiazole-2-carboxamide]
18 | – | – | 0.0045 | 108 | 0.036 | – | C[C@H]1CCCN1C(=O)c1nc(C(=O)N[C@@H]2CC[C@H]2O)sc1-c1cnc(NC(C)(C)C)cc1C(F)F (relative stereo) [Example 403, 5-(6-(tert-Butylamino)-4-(difluoromethyl)pyridin-3-yl)-N-(1R*,2R*)-2-hydroxycyclobutyl)-4-((S)-2-methylpyrrolidine-1-carbonyl)thiazole-2-carboxamide]
